“Also recorded” adds a separate entry of the source.

Consider 6 compounds from paper PMC10964431 (European journal of medicinal chemistry, 2024).

One data set concerns SARS-CoV-2. It is filed as cell-based. The following applies: VeroE6 cells.
The next data set concerns SARS-CoV-2^WK−521. The data set is described as follows: Immunocytochemistry assay of infected VeroE6 cells. The following applies: for infected cells by immunocytochemistry: VeroE6 cells exposed to SARS-CoV-2^WK−521; for infectivity and cytopathic effect of SARS-CoV-2: VeroE6^TMPRSS2 cells. It is filed as cell-based. Background: Protection from cytopathic effect is a common read-out in antiviral testing.

The target in the next data set is SARS-CoV-2 3CLpro (Severe acute respiratory syndrome coronavirus 2, UniProt P0DTD1). Nature of the data set: SARS-CoV-2 3CLpro. It is filed as biochemical.

In the case of `CC(C)(C)NC(=O)N[C@H](C(=O)N1C[C@H]2[C@@H]([C@H]1C(=O)N[C@H](C#N)C[C@@H]1CCNC1=O)C2(C)C)C(C)(C)C` [Compound 5m, (1R,2S,5S)-3-((S)-2-(3-(Tert-butyl)ureido)-3,3-dimethylbutanoyl)-N-((S)-1-cyano-2-((S)-2-oxopyrrolidin-3-yl)ethyl)-6,6-dimethyl-3-azabicyclo[3.1.0]hexane-2-carboxamide], the “loss of antiviral activity compared to Boc-derivative 5g” value in the data set with SARS-CoV-2 is 3 fold.
Turning to `CC(C)(C)[C@H](NC(=O)C(F)(F)F)C(=O)N1C[C@H]2[C@@H]([C@H]1C(=O)N[C@H](C#N)C[C@@H]1CCNC1=O)C2(C)C` [Nirmatrelvir, (1R,2S,5S)-N-((S)-1-Cyano-2-((S)-2-oxopyrrolidin-3-yl)ethyl)-3-((S)-3,3-dimethyl-2-(2,2,2-trifluoroacetamido)butanoyl)-6,6-dimethyl-3-azabicyclo[3.1.0]hexane-2-carboxamide, reference compound], the “infected cells by immunocytochemistry” value with SARS-CoV-2^WK−521 (1 μM compound) is recorded as “complete viral breakthrough”; in the data set with SARS-CoV-2^WK−521 (10 μM compound), “hardly any infected cells”; in the data set on SARS-CoV-2^WK−521 (100 μM compound) it was “hardly any infected cells”. Moreover, the “infectivity and cytopathic effect of SARS-CoV-2” value in the data set on SARS-CoV-2^WK−521 is on record as “potently blocked”.
Take `CC(C)(C)[C@H](NC(=O)C(Cl)(Cl)Cl)C(=O)N1C[C@H]2[C@@H]([C@H]1C(=O)N[C@H](C#N)C[C@@H]1CCCNC1=O)C2(C)C` [Compound 5f, (1R,2S,5S)-N-((S)-1-Cyano-2-((S)-2-oxopiperidin-3-yl)ethyl)-3-((S)-3,3-dimethyl-2-(2,2,2-trichloroacetamido)butanoyl)-6,6-dimethyl-3-azabicyclo[3.1.0]hexane-2-carboxamide]: the “improvement in antiviral activity over nirmatrelvir 1” value in the data set on SARS-CoV-2 (ratio of EC50 values) is reported as “over 7 fold”.
Turning to `CC(C)(C)[C@H](NC(=O)C(F)(F)F)C(=O)N1C[C@H]2[C@@H]([C@H]1C(=O)N[C@H](C#N)C[C@@H]1CCCNC1=O)C2(C)C` [Compound 5e, (1R,2S,5S)-N-((S)-1-Cyano-2-((S)-2-oxopiperidin-3-yl)ethyl)-3-((S)-3,3-dimethyl-2-(2,2,2-trifluoroacetamido)butanoyl)-6,6-dimethyl-3-azabicyclo[3.1.0]hexane-2-carboxamide], the toxicity result in the data set on VeroE6 cells is given as “without significant toxicity”. In addition, the “infected cells by immunocytochemistry” value in the data set on SARS-CoV-2^WK−521 (1 μM compound) is reported as “some infected cells were observed”; in the data set with SARS-CoV-2^WK−521 (10 μM compound) it was “hardly any infected cells”; in the data set on SARS-CoV-2^WK−521 (100 μM compound), “hardly any infected cells”. For the same compound, the “infectivity and cytopathic effect of SARS-CoV-2” value in the data set on SARS-CoV-2^WK−521 is recorded as “significantly reduced; also recorded: potently blocked”. The “improvement of Mpro inhibitory activity over nirmatrelvir 1” value on SARS-CoV-2 3CLpro (ratio of Ki values) was “more than 6 fold”.
As to `CC(C)(C)[C@H](NC(=O)OCc1cccnc1)C(=O)N1C[C@H]2[C@@H]([C@H]1C(=O)N[C@H](C#N)C[C@@H]1CCNC1=O)C2(C)C` [Compound 5k, Pyridin-3-ylmethyl((2S)-1-((1R,2S,5S)-2-((1-cyano-2-((S)-2-oxopyrrolidin-3-yl)ethyl)carbamoyl)-6,6-dimethyl-3-azabicyclo[3.1.0]hexan-3-yl)-3,3-dimethyl-1-oxobutan-2-yl)carbamate], in the data set with SARS-CoV-2, the “improvement of antiviral activity compared to benzyl carbamate derivative 5i” value is recorded as greater than 8 fold.
As for `CC(C)(C)[C@H](NC(=O)C(F)(F)F)C(=O)N1C[C@H]2[C@@H]([C@H]1C(=O)N(C(=O)C(F)(F)F)[C@H](C#N)C[C@@H]1CCNC1=O)C2(C)C` [Compound 5h, (1R,2S,5S)-N-((S)-1-Cyano-2-((S)-2-oxopyrrolidin-3-yl)ethyl)-3-((S)-3,3-dimethyl-2-(2,2,2-trifluoroacetamido)butanoyl)-6,6-dimethyl-N-(2,2,2-trifluoroacetyl)-3-azabicyclo[3.1.0] hexane-2-carboxamide], the “Mpro inhibitory activity (in words)” value at SARS-CoV-2 3CLpro was “no appreciable”. Further, the “antiviral activity (in words)” value with SARS-CoV-2 is “no appreciable”.
